Laboratory results published in US9018250B2, “Pharmaceutical composition and dosage form comprising dronedarone, and preparation method thereof” (Sanofi, priority 2010, dated 2015).
≈ marks a conversion by molar mass, not a printed value. Like-named read-outs stand apart in the source and are kept apart here.

Columns and labels:
[1] = Solubility of dronedarone hydrochloride and base form in lipid excipients (Table A); format: physicochemical
[2] = In-vitro dissolution test with a jump in pH (simulated gastric pH 4, then simulated intestinal pH 6.5); format: physicochemical; conditions: for percentage of active principle released (dissolution curves, in words): pH 4 for 60 min, then pH 6.5 up to 180 min, FIG. 1-7
Source text: In order to reproduce the effect of pH on the active principle and in particular on its dissolution during its passage through the gastrointestinal tract, a gastrointestinal environment was simulated by reproducing the pH of the stomach and then the pH of the intestine with a jump in pH. The dissolution kinetics was investigated using a simple in-vitro dissolution test with a jump in pH.
The principle consists of determining the dissolution of the formulated active principle by studying its dissolution kinetics at 37° C., firstly in simulated gastric medium at pH 4, then in simulated intestinal medium at pH 6.5, in a time interval consistent with the gastrointestinal tract.
Equipment: precision balance (Mettler AE200 or AT261), pH meter (Knick or Schott Geräte or Inolab), thermostated Dissolutest 6 or 7 bowls (Sotax AT6 or AT7), 5 μm filter (PALL Versapore 25 mm) with syringe (Térumo), UV spectrophotometer (Gilford Response II or Perkin Elmer) or HPLC (Merck or Agilent).
Dissolution media: The simulated physiological media representative of the gastrointestinal tract are obtained from simulated gastric and intestinal fluids recommended by the USP, but used without pepsin or pancreatin. • simulated gastric fluid—USP (without pepsin): • 2 g of sodium chloride per 900 ml of distilled water, • pH adjusted to 1.2 with concentrated hydrochloric acid (37%), • Q.S. 1000 ml with distilled water. • simulated intestinal fluid—USP (without pancreatin): • 6.8 g of potassium dihydrogen phosphate per 900 ml of distilled water, • pH adjusted to 7.5 with concentrated sodium hydroxide (10 M), • Q.S. 1000 ml with distilled water.
The simulated gastric medium of pH 4 is thus obtained by mixing the two simulated fluids in various proportions, monitoring with a pH electrode. The dissolution medium of the intestinal type is adjusted to pH 6.5 with a few drops of concentrated soda (10M) to simulate passage of the active principle into the beginning of the intestine, without leading to dilution.
Standard solutions of active principle are prepared in a solvent medium, preferably in the mobile phase or ethanol or methanol, and then analyzed at the characteristic wavelength of the active principle. A calibration straight line showing the concentrations as a function of the optical densities (analysis by UV spectrophotometry) or of the areas under peak (HPLC analysis) is then determined. The equation of the straight line obtained can be used for determining the concentration of dissolved active principle from measurement of the optical density or of the area under peak.
The concentration used corresponds to the dose in 250 ml (i.e. 4 capsules in a 500-ml bowl). The dissolution kinetics is first investigated in simulated gastric medium of pH 4 in the dissolution test in bowls thermostated at 37° C., with paddle stirring at 75 rpm, for 1 hour with sampling at times 5, 15, 30, 45 and 60 minutes, then in intestinal medium with an increase in pH to 6.5 by adding a small volume of concentrated soda (example: 0.400 ml for 500 ml of medium at pH 4), monitoring with a pH electrode. The kinetics is monitored for 3 hours with sampling at times 75, 90, 120 and 180 minutes and each sample is filtered at 5 μm and then analyzed.
Two methods of analysis can be used depending on the sensitivity required and the dosage form under investigation: UV spectrophotometry (for active principle only) or HPLC (for active principle only or formulated).
The concentration at a time t is determined based on the previously established calibration. During analysis by UV spectrophotometry, the whole absorption spectrum is monitored at least at the end of the kinetic study. In addition, the pH of the medium is monitored at the end of the kinetic study. […]

[3] = cited from earlier work
[4] = cited from earlier work; remark: listed apart in the source
[5] = Capmul PG8 (HLB 5), oil or lipid, in Capmul PG8 (HLB 5), RT, read-out: Solubility
[6] = Captex 355, oil or lipid, in Captex 355, RT, read-out: Solubility
[7] = Cremophor RH 40 (HLB 14), 55 °C, oil or lipid, in Cremophor RH 40 (HLB 14), 55° C., read-out: Solubility
[8] = Gelucire 33/01 (HLB 1), 55 °C, oil or lipid, in Gelucire 33/01 (HLB 1), 55° C., read-out: Solubility
[9] = Gelucire 43/01 (HLB 1), 55 °C, oil or lipid, in Gelucire 43/01 (HLB 1), 55° C., read-out: Solubility
[10] = Labrafac PG, oil or lipid, in Labrafac PG, RT, read-out: Solubility
[11] = Labrafil M1944Cs, oil or lipid, in Labrafil M1944Cs, RT, read-out: Solubility
[12] = Labrasol ALF, oil or lipid, in Labrasol ALF, RT, read-out: Solubility
[13] = Lauroglycol 90, oil or lipid, in Lauroglycol 90, RT, read-out: Solubility
[14] = Lipophilic Labrafac, oil or lipid, in Lipophilic Labrafac, RT, read-out: Solubility
[15] = Miglyol 812N, oil or lipid, in Miglyol 812N, RT, read-out: Solubility
[16] = PEG 400, organic solvent or mixture, in PEG 400, RT, read-out: Solubility
[17] = propylene glycol, organic solvent or mixture, in propylene glycol, RT, read-out: Solubility
[18] = soybean oil, oil or lipid, in soybean oil, RT, read-out: Solubility
[19] = surfactant Chrem RH40 (HLB 14), capsules G24 (HCl) / G25 (base)
[20] = surfactant Pluronic L44 (HLB 12), capsules G26 (HCl) / G27 (base), pH 6.5 after jump, 37° C.
[21] = surfactant Polox 188 (HLB 29), capsules G22 (HCl) / G23 (base)
[22] = surfactant Polox 407 (HLB 22), capsules G1 (HCl) / G5 (base)
[23] = surfactant Tween 60 (HLB 15), capsules G28 (HCl) / G29 (base)

Structure (SMILES) | solubility [1, 5] [mg/mL] | solubility [1, 6] [mg/mL] | solubility [1, 7] [mg/mL] | solubility [1, 8] [mg/mL] | solubility [1, 9] [mg/mL] | solubility [1, 10] [mg/mL] | solubility [1, 11] [mg/mL] | solubility [1, 12] [mg/mL] | solubility [1, 13] [mg/mL] | solubility [1, 14] [mg/mL] | solubility [1, 15] [mg/mL] | solubility [1, 16] [mg/mL] | solubility [1, 17] [mg/mL] | solubility [1, 18] [mg/mL] | percentage of active principle released (dissolution curves, in words) [2] | % of dronedarone at 180 min [2, 19] [%] | % of dronedarone at 180 min [2, 20] [%] | % of dronedarone at 180 min [2, 21] [%] | % of dronedarone at 180 min [2, 22] [%] | % of dronedarone at 180 min [2, 23] [%] | other results
CCCCc1oc2ccc(NS(C)(=O)=O)cc2c1C(=O)c1ccc(OCCCN(CCCC)CCCC)cc1 [Dronedarone Base, 2-n-butyl-3-[4-(3-di-n-butylaminopropoxy)benzoyl]-5-methylsulfonamidobenzofuran] | 517 (≈ 929 mM) | 167 (≈ 299 mM) | > 313 | 371 (≈ 667 mM) | 259 (≈ 465 mM) | 184 (≈ 330 mM) | 208 (≈ 374 mM) | 401 (≈ 721 mM) | 311 (≈ 558 mM) | 129 (≈ 231 mM) | 144 (≈ 258 mM) | 273 (≈ 491 mM) | 18.2 (≈ 32.7 mM) | 60.7 (≈ 109 mM) | equivalent regardless of which nonionic surfactant is used | 85.3 | 76.38 | 71.32 | 72.89 | 81.12 | solubility ([1]; Crodamol EO (ethyl oleate), oil or lipid, in Crodamol EO (ethyl oleate), RT, read-out: Solubility): 154 mg/mL (≈ 276 mM); solubility ([1]; Gelucire 44/14 (HLB 14), 55 °C, oil or lipid, in Gelucire 44/14 (HLB 14), 55° C., read-out: Solubility): 633 mg/mL (≈ 1140 mM); solubility ([1]; Labrasol, oil or lipid, in Labrasol, RT, read-out: Solubility): > 400 mg/mL; solubility ([1]; ethanol, organic solvent or mixture, in ethanol, RT, read-out: Solubility): > 500 mg/mL; solubility ([1]; in Labrafil M1944Cs, RT): 192.6 mg/mL (≈ 346 mM); solubility ([1]; in Miglyol 812N, RT): 141.6 mg/mL (≈ 254 mM); solubility ([1]; in PEG 400, RT): 280.1 mg/mL (≈ 503 mM); solubility ([1]; in soybean oil, RT): 87.7 mg/mL (≈ 158 mM); solubility ([1]; oleic acid, oil or lipid, in Oleic acid, RT, read-out: Solubility): > 341 mg/mL; solubility ([1]; sweet almond oil, oil or lipid, in sweet almond oil, RT, read-out: Solubility): 45.2 mg/mL (≈ 81.2 mM); absolute bioavailability ([3]; taken with food): no more than 15%; absorption after oral administration ([3]; with a meal): at least 70%
CCCCc1oc2ccc(NS(C)(=O)=O)cc2c1C(=O)c1ccc(OCCCN(CCCC)CCCC)cc1.Cl [Dronedarone Hydrochloride, 2-n-butyl-3-[4-(3-di-n-butylaminopropoxy)benzoyl]-5-methylsulfonamidobenzofuran hydrochloride] | 10 | 0.0353 | 14.8 | 0.0962 | 0.0445 | 0.0416 | 0.504 | 4.84 | 2.09 | 0.0251 | 0.0409 | 13.2 | 15.8 | 0.0231 | better profiles for an HLB between 15 and 25 | 59.01 | 49.1 | 69.82 | 90.49 | 58.32 | behaviour on dilution to 1/10 with aqueous solution buffered at pH=7 ([4]; final pH of the medium=6.7): is precipitated; solubility ([4]; room temperature, pH=7): no more than 10 μg/ml
